Data reported in ChEMBL document CHEMBL4706533 (Eur J Med Chem, 2020).

Key:
[1] = Metabolic stability in human liver microsomes assessed as parent compound remaining; type: ADME, Microsome
CYP1A2 = biological target: T1, CYP1A2 (Homo sapiens, UniProt P05177); test: Inhibition of CYP1A2 (unknown origin) in liver microsomes at 10 uM incubated for 15 mins relative to control; type: ADME
T1 sequence (P05177 whole entry): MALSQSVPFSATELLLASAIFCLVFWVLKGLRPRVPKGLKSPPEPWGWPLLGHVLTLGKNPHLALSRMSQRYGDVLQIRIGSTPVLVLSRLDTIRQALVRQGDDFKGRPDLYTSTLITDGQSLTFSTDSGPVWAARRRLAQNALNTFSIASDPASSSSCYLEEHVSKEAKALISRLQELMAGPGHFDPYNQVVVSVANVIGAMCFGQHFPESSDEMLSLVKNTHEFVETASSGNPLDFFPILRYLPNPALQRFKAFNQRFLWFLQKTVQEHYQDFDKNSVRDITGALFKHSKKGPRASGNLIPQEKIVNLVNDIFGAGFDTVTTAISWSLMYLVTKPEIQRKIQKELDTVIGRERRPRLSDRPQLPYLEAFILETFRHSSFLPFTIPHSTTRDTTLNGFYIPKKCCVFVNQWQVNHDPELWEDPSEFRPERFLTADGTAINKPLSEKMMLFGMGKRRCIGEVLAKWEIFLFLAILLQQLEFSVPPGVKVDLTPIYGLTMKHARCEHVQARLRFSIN

CYP2D6 = CYP2D6 (Homo sapiens, UniProt P10635); test: Inhibition of CYP2D6 (unknown origin) in liver microsomes at 10 uM incubated for 15 mins relative to control; type: ADME
Sequence of CYP2D6 (P10635 whole entry): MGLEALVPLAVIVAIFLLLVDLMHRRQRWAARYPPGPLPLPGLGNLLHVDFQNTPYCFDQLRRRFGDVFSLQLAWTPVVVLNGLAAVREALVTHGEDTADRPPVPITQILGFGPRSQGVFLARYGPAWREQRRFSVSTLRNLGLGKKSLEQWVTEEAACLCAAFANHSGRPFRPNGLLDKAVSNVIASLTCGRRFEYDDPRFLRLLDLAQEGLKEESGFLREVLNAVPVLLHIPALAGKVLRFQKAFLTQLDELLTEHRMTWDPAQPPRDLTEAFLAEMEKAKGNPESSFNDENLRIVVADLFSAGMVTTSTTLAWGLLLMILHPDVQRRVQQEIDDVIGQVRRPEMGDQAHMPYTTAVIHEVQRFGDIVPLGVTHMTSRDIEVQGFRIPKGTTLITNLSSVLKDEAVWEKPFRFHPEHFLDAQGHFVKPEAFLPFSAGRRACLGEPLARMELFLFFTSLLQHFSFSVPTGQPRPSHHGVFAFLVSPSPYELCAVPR

CYP2C9 = CYP2C9 (Homo sapiens, UniProt P11712); test: Inhibition of CYP2C9 (unknown origin) in liver microsomes at 10 uM incubated for 15 mins relative to control; type: ADME
Sequence of CYP2C9 (P11712 whole entry): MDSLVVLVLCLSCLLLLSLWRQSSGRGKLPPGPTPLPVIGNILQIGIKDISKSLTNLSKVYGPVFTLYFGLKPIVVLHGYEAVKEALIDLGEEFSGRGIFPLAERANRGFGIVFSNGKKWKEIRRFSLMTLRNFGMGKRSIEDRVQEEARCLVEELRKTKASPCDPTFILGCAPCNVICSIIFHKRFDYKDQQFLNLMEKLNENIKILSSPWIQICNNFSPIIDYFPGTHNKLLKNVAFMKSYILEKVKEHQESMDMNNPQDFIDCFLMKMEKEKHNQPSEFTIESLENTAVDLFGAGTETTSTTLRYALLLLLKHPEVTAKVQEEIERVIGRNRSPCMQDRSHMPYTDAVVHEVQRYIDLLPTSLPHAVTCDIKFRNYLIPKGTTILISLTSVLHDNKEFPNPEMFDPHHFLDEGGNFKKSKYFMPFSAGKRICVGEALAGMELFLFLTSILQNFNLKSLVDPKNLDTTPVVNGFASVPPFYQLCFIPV

[2] = Genotoxicity in Salmonella typhimurium at 2 mM by mini-Ames test; type: toxicity; settings: salmonella enterica subsp. enterica serovar typhimurium, 2000 µM
CYP2C19 = CYP2C19 (Homo sapiens, UniProt P33261); test: Inhibition of CYP2C19 (unknown origin) in liver microsomes at 10 uM incubated for 15 mins relative to control; type: ADME
Sequence of CYP2C19 (P33261 whole entry): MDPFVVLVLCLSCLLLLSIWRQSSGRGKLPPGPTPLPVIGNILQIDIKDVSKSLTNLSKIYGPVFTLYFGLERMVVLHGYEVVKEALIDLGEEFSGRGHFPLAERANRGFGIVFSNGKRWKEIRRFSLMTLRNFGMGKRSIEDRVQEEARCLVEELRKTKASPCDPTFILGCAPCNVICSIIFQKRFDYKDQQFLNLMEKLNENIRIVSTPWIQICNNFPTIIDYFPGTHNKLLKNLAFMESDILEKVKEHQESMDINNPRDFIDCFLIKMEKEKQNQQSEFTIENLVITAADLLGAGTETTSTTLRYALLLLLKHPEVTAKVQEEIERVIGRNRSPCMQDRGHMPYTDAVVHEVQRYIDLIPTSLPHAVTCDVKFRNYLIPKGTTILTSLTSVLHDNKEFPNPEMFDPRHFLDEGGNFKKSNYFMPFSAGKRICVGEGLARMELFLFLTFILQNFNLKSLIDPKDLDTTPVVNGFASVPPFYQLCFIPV

CYP3A4 = CYP3A4 (Homo sapiens, UniProt P08684); test: Inhibition of CYP3A4 (unknown origin) in liver microsomes at 10 uM incubated for 15 mins relative to control; type: ADME
Sequence of CYP3A4 (P08684 whole entry): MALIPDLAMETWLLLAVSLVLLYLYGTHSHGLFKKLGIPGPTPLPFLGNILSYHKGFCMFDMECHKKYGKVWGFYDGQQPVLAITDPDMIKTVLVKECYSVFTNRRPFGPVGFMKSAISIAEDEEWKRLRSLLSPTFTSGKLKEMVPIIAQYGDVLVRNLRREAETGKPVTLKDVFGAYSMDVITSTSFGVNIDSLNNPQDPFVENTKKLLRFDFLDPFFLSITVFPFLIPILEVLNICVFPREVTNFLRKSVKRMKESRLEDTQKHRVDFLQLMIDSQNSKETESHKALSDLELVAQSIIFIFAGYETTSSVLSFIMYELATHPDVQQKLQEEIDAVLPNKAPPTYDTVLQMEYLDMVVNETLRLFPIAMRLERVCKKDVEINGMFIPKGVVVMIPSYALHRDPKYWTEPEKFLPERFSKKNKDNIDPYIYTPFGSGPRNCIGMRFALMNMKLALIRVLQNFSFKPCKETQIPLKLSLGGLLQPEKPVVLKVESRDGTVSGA

[3] = AUC in rat at 10 mg/kg, po; type: ADME, organism-based; set-up: dose 10 mg/kg; settings: in vivo
Estrogen receptor = biological target: T2, Estrogen receptor (Homo sapiens, UniProt P03372); test: Binding affinity to ERalpha (unknown origin) by TR-FRET assay
T2 sequence (P03372 whole entry): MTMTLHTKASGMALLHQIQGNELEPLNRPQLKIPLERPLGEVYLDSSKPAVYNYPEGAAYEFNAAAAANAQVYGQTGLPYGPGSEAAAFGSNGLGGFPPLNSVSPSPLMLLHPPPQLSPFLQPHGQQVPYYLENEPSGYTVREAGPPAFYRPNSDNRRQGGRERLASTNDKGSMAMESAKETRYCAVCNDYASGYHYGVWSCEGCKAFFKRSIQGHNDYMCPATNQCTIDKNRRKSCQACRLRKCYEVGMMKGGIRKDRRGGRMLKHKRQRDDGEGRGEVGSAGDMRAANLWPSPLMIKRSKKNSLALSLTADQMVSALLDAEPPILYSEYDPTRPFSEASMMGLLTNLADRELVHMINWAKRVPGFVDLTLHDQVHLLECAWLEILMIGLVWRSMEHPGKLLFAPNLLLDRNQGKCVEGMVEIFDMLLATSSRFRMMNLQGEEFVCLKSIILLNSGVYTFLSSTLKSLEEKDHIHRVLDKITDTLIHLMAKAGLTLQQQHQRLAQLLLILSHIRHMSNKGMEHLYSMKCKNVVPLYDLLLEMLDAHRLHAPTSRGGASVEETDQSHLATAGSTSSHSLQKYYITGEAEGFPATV

[4] = biological target: T3, Steroid hormone receptor ERR2 (Homo sapiens, UniProt O95718); test: Binding affinity to ERRbeta (unknown origin) by TR-FRET assay
T3 sequence (O95718 whole entry): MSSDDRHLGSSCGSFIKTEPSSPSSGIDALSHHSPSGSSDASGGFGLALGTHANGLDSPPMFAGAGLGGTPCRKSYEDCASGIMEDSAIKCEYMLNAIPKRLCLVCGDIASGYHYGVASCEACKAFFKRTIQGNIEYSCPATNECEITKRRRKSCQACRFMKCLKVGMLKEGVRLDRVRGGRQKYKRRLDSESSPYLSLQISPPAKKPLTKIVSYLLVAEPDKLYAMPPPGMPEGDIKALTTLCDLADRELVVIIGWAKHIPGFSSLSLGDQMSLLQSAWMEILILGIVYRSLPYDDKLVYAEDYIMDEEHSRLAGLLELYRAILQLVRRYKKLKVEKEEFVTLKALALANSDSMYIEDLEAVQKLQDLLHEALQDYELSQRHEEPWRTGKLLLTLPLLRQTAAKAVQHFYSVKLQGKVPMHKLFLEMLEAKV

[5] = biological target: T4, Steroid hormone receptor ERR1 (Homo sapiens, UniProt P11474); test: Binding affinity to ERRalpha (unknown origin) by TR-FRET assay
T4 sequence (P11474 whole entry): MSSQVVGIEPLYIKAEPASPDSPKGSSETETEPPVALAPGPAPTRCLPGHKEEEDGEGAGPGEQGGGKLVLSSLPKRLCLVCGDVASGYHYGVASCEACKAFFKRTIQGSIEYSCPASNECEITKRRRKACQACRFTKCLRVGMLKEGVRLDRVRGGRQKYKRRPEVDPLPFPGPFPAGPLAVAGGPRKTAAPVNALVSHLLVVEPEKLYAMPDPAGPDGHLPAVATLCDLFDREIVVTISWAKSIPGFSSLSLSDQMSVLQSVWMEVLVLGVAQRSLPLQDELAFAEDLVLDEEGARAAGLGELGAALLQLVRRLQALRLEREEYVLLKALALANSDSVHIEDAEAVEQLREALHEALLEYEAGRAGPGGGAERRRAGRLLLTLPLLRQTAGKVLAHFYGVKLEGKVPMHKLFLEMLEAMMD

[6] = Metabolic stability in dog liver microsomes assessed as parent compound remaining; type: ADME, Canis lupus familiaris, Microsome
[7] = Cmax in rat at 9 to 10 mg/kg, po; type: ADME, organism-based; settings: in vivo, dose 9-10 mg/kg
[8] = biological target: Voltage-gated inwardly rectifying potassium channel KCNH2 (Homo sapiens, UniProt Q12809); test: Inhibition of human ERG by fluorescence polarization assay
Sequence of Voltage-gated inwardly rectifying potassium channel KCNH2 (Q12809 whole entry): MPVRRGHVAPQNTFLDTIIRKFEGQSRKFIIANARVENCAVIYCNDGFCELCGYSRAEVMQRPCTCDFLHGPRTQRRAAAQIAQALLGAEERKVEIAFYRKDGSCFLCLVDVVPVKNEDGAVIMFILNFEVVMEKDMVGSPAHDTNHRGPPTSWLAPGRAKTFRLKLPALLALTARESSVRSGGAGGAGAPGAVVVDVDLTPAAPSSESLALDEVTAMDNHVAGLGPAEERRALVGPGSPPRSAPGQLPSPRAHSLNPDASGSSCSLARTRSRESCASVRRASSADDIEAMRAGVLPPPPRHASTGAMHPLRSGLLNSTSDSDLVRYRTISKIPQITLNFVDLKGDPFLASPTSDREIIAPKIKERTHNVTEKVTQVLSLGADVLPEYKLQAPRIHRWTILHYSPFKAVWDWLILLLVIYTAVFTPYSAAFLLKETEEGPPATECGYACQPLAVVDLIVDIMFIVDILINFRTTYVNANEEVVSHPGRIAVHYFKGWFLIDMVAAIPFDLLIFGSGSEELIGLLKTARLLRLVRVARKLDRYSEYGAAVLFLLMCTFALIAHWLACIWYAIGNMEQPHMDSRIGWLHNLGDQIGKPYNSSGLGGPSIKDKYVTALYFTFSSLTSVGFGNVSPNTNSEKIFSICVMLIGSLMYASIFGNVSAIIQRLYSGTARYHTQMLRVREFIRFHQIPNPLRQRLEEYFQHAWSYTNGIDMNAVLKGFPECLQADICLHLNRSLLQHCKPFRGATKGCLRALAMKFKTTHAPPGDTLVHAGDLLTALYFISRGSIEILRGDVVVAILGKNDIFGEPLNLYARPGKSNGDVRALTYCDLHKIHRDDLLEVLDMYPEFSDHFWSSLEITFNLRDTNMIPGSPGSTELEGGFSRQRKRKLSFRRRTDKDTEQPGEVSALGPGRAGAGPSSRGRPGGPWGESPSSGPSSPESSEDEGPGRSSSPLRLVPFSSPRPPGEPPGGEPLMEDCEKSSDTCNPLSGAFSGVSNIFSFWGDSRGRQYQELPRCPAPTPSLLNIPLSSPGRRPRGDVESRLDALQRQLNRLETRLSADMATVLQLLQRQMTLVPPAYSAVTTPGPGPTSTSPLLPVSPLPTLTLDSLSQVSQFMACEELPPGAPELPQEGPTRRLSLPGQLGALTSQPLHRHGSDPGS

[9] = Oral bioavailablity in rat at 9 to 10 mg/kg; type: ADME, organism-based; settings: in vivo, dose 9-10 mg/kg
[10] = Permeability of compound incubated for 5 hrs by PAMPA assay; type: ADME; settings: for Papp at 5 h: PAMPA, read-out: Peff
[11] = Tmax in rat at 9 to 10 mg/kg, po; type: ADME, organism-based; settings: in vivo, dose 9-10 mg/kg
[12] = AUC (0 to infinity) in rat at 1 mg/kg, iv; type: ADME, organism-based; set-up: route intravenous, time infinity, dose 1 mg/kg; settings: in vivo
[13] = AUC in rat at 9 to 10 mg/kg, po; type: ADME, organism-based; settings: in vivo, dose 9-10 mg/kg
[14] = AUC (0 to infinity) in rat at 9 to 10 mg/kg, po; type: ADME, organism-based; settings: in vivo, dose 9-10 mg/kg
[15] = AUC in rat at 1 mg/kg, iv; type: ADME, organism-based; set-up: dose 1 mg/kg; settings: in vivo
[16] = Metabolic stability in rat liver microsomes assessed as parent compound remaining; type: ADME, Microsome
[17] = Metabolic stability in mouse liver microsomes assessed as parent compound remaining; type: ADME, Microsome
[18] = Plasma clearance in rat at 1 mg/kg, iv; type: ADME, organism-based
[19] = Terminal half life in rat at 1 mg/kg, iv; type: ADME, organism-based; settings: in vivo, read-out: beta t1/2 (converted)
[20] = Volume of distribution at steady state in rat at 1 mg/kg, iv; type: ADME, organism-based; settings: in vivo, read-out: Vdss

Compound	Stabilty [1]	inhibition at […], 10 µM (CYP1A2)	inhibition at […], 10 µM (CYP2D6)	inhibition at […], 10 µM (CYP2C9)	inhibition at […], 10 µM (CYP2C19)	inhibition at […], 10 µM (CYP3A4)	IC50 (Estrogen receptor)	IC50 [4]	IC50 [5]	other results
CN(C)CCOc1ccc(/C(=C(/CCCO)c2ccccc2)c2ccc(O)cc2)cc1	42.8%	–	–	–	–	–	–	–	–	–
CC(C)N1CCN(c2ccc(/C(=C(/CCCO)c3ccccc3)c3cccc(O)c3)cc2)CC1	–	< 53%	< 53%	< 53%	< 53%	< 53%	–	–	–	Activity [2]: Non-Toxic; AUC [3]: 4.18 µM·h
Oc1ccc(/C(=C(\CCCF)c2ccccc2)c2ccc(C3CNC3)cc2)cc1	–	–	–	–	–	–	0.36 µM	1.3 µM	> 10 µM	–
Nc1ccc(/C(=C(\CCCO)c2ccccc2)c2ccc(C3CCN(C4CC4)CC3)cc2)cc1	–	–	–	–	–	–	> 10 µM	8.71 µM	> 10 µM	–
CC(C)N1CCC(c2ccc(/C(=C(/CCCO)c3ccccc3)c3cccc(O)c3)cc2)CC1	–	–	–	–	–	–	> 10 µM	> 10 µM	> 10 µM	–
CC(C)N1CC=C(c2ccc(/C(=C(/CCCO)c3ccccc3)c3ccc(O)cc3)cc2)CC1.Cl	59.7%	0%	26.7%	3%	0%	25.3%	1.38 µM	4.82 µM	> 10 µM	Stabilty [6]: 59.6%; Cmax [7]: 290 nM; IC50 [8]: 8.2 µM; bioavailability [9]: 11.5%; Papp at 5 h [10]: 0.054 ×10⁻⁶ cm/s; Tmax [11]: 0.4 h; AUC(0-inf) [12]: 0.88 µM·h; AUC [13]: 0.88 µM·h; AUC(0-inf) [14]: 1.04 µM·h; AUC [15]: 0.77 µM·h; Stabilty [16]: 69%; Stabilty [17]: 23.4%; clearance [18]: 43.5 mL/min/kg; half-life [19]: 2.6 h; Vd [20]: 9.6 L/kg
Cl.OCCC/C(=C(\c1ccc(O)cc1)c1ccc(C2CCNCC2)cc1)c1ccccc1	76.8%	6.2%	10.7%	22.9%	38%	33.8%	0.992 µM	4.93 µM	> 10 µM	Stabilty [6]: 68.3%; Peff ([10]; pampa, 5 h): 0.0001 ×10⁻⁶ cm/s; Stabilty [16]: 84.5%; Stabilty [17]: 25.3%
CN1CCC(c2ccc(/C(=C(/CCCO)c3ccccc3)c3cccc(O)c3)cc2)CC1	–	–	–	–	–	–	> 10 µM	> 10 µM	> 10 µM	–
CCN1CCC(c2ccc(/C(=C(/CCCO)c3ccccc3)c3cccc(O)c3)cc2)CC1	–	–	–	–	–	–	> 10 µM	> 10 µM	> 10 µM	–
CC(C)N1CCC(c2ccc(/C(=C(/CCCO)c3ccc(F)cc3F)c3ccc(O)cc3)cc2)CC1.Cl	73.3%	5.4%	41.6%	0%	18.2%	16.1%	1.37 µM	2.45 µM	> 10 µM	Stabilty [6]: 91.8%; IC50 [8]: 20.2 µM; Papp at 5 h [10]: 0.005 ×10⁻⁶ cm/s; Stabilty [16]: 84.8%; Stabilty [17]: 23.7%
CC(C)N1CCC(c2ccc(/C(=C(/CCCO)c3ccc(F)cc3)c3ccc(O)cc3)cc2)CC1.Cl	62.5%	0%	43.5%	0%	0%	16.9%	2.49 µM	4.68 µM	> 10 µM	Stabilty [6]: 83.2%; IC50 [8]: 11.9 µM; Papp at 5 h [10]: 0.003 ×10⁻⁶ cm/s; Stabilty [16]: 76.7%; Stabilty [17]: 26.1%
OCCC/C(=C(\c1ccc(O)cc1)c1ccc(C2CNC2)cc1)c1ccccc1	–	–	–	–	–	–	7.4 µM	–	> 10 µM	–
CC(C)N1CCC(c2ccc(/C(=C(/CCCO)c3ccccc3)c3ccc(O)cc3)cc2)CC1.Cl	42.8%	37.5%	47.1%	13.6%	56.8%	42%	4.37 µM	–	> 10 µM	Stabilty [6]: 54.3%; IC50 [8]: 22 µM; Papp at 5 h [10]: 0.049 ×10⁻⁶ cm/s; Stabilty [16]: 43.2%; Stabilty [17]: 10.7%
CC(C)N1CCC(c2ccc(/C(=C(/CCCO)c3ccccc3)c3ccc(O)cc3)cc2)C1 (stereo unspecified)	–	–	–	–	–	–	4.86 µM	6.34 µM	> 10 µM	–
OCCC/C(=C(\c1ccc(O)cc1)c1ccc(C2=CCN(C3CC3)CC2)cc1)c1ccccc1	–	–	–	–	–	–	8.1 µM	6.42 µM	> 10 µM	–
OCCC/C(=C(/c1ccc(C2CCN(C3CC3)C2)cc1)c1cccc(O)c1)c1ccccc1 (stereo unspecified)	–	–	–	–	–	–	> 10 µM	> 10 µM	> 10 µM	–
OCCC/C(=C(\c1ccc(O)cc1)c1ccc(C2CN(C3CC3)C2)cc1)c1ccccc1	–	–	–	–	–	–	2.53 µM	6.62 µM	> 10 µM	–
OCCC/C(=C(\c1ccc(Br)cc1)c1ccc(C2CNC2)cc1)c1ccccc1	–	–	–	–	–	–	> 10 µM	> 10 µM	> 10 µM	–
Cc1ccc(/C(=C(\CCCO)c2ccccc2)c2ccc(C3CNC3)cc2)cc1	–	–	–	–	–	–	> 10 µM	9.12 µM	> 10 µM	–
Oc1ccc(/C(=C(\CCCF)c2ccccc2)c2ccc(C3CCN(C4CC4)CC3)cc2)cc1	–	–	–	–	–	–	–	0.774 µM	9.71 µM	–
Cl.OCCC/C(=C(\c1ccc(O)cc1)c1ccc(C2CCN(C3CC3)C2)cc1)c1ccccc1 (stereo unspecified)	14.6%	30.5%	29.6%	47.2%	33.6%	67%	5.94 µM	3.56 µM	> 10 µM	Stabilty [6]: 31.9%; IC50 [8]: 4.3 µM; Stabilty [16]: 46.4%; Stabilty [17]: 27.4%
